Reference: patent US20180024136A1, “Development of ABCG2-Sensitive Fluorescent Probe For Isolation of ABCG2low Neural Stem/Progenitor Cells” (National University of Singapore, priority 2015, published 2018)

Legend:
[1] = Spectroscopic properties of CF library (absorbance, emission, quantum yield, extinction coefficient); assay type: physicochemical
Procedure, shortened: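 Absorbance, emission and quantum yield were measured on a combined fluorometer/UV-VIS plate reader with 1 nm excitation and emission slit widths.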

[2] = tested on: NS-5 cells; assay: Subcellular co-localization with organelle trackers by confocal microscopy; assay type: cell-based, mouse
Procedure: Hoechst 33342 (2 μM) and CDg13 (1 μM) were added to the cell culture medium. After incubation for 1 hour, culture media were changed with BSA-free medium to maintain CDg13 staining. The organelle specific chemical probes, ER-Tracker™ Red, BODIPY® TR Ceramide, LysoTracker® Red DND-99 and MitoTracker® Deep Red FM, were used to stain endoplasmic reticulum, Golgi apparatus, lysosome and mitochondria, respectively according to manufacturer's instructions (Molecular Probe). The subcellular staining was observed under confocal microscope and their co-localizations were analyzed by Pearson's Collection and Mander's overlap using NIS-Elements software of Eclipse Ti microscope (Nikon).
NS-5 cells stained with CDg13, Hoechst33342 and/or organelle markers were observed using A1R+si confocal microscope (Nikon) within 1 hour after staining. The live NS-5 cells were loaded into a pre-heated plate with supplemented 5% CO2. Fast scanning less than 250 ms with 4 times scan were used to prevent phototoxicity onto the cells.

[3] = tested on: neurospheres from E14.5 mouse embryonic brain; assay: Neuronal differentiation of primary neurospheres (Tuj1/GFAP immunostaining); assay type: cell-based; details: neurospheres from sorted cells, 150 per group
Procedure: All animal experiments were approved by the Biomedical Research Council Singapore, Institutional Animal Care and Use Committee (IACUC). E14.5 embryos were obtained from C57BL/6 pregnant mice. Cerebral cortices were removed and triturated into single-cell suspension by digestion of dissected tissues with StemPro® Accutase® (Invitrogen) and filtered through 40 μm nylon mesh. Dissociated cells were seeded at a density of 1×10^3 cells/cm^2 in neurosphere growth medium [DMEM/F12 supplemented with 2% B27 (without vitamin A), bFGF (10 ng/ml), EGF (20 ng/ml), 1× anti-anti]. All the cell culture components were from Invitrogen. Passaging of neurosphere was conducted through single cell dissociation of neurospheres as described above. […]
More than a hundred of differentiated neurospheres were fixed in paraformaldehyde (4%, w/v) for 15 min, permeabilized in Triton X-100 (0.1% v/v), and blocked with BSA (3% w/v) for 1 hour. […] The existence of clear Tuj1 positive cells inside a differentiated neurosphere were counted as neuron-contained neurospheres. Neuronal clumps were counted if more than 10 of nuclei of neuronal cells are packaged each other. Neurite outgrowth of Tuj1 positive cells were measured using neurite outgrowth module parameter of MetaXpress ([…]) with maximum width of 1 μm. The phases with high neurite outgrowth were selected and counted at least 300 cells.

[4] = tested on: mouse NSPCs; assay: Neurosphere size after co-incubation with probe; assay type: cell-based; details: 1 μM, 7 days
[5] = biological target: T1, ABCG2 (Homo sapiens, UniProt Q9UNQ0); assay: Probe response to Ko143 in RPMI-8226 cells; assay type: cell-based; parameters: pre-treatment of RPMI-8226 cells with or without Ko143; endogenous in cells; host or cells: RPMI-8226; details: RPMI-8226, Ko143 pre-treatment, 1 μM probe
T1 sequence (Q9UNQ0 1-655): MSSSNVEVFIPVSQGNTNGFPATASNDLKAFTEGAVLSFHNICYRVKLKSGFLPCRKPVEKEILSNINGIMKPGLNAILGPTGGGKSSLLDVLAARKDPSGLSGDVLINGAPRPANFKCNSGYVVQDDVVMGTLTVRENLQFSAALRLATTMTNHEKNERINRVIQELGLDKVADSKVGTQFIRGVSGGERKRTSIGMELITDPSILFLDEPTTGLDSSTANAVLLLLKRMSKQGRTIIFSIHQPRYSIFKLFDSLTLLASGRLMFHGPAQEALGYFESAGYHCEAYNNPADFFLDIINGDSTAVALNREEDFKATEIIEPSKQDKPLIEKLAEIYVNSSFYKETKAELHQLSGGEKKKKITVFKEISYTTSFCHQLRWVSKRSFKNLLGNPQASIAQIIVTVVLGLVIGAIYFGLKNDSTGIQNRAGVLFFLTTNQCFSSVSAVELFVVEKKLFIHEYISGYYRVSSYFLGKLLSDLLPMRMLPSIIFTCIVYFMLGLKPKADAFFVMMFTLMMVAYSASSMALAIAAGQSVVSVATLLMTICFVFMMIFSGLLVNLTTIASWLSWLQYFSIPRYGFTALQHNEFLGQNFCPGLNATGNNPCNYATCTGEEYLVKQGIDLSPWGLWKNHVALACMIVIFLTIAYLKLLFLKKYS
Procedure: FIGS. 11A-11B show CDg13 has high sensitivity to ABCG2: (A) and (B) pre-treatment of RPMI-8226 cells with or without Ko143 were conducted for 30 minutes prior to staining with 1 μM of CDg13, pheophorbide A (PhA) or CDr3, fold change of fluorescence intensity from 3-6 independent experiments (A) (values are means±SEM, *, p<0.05; **, p<0.01), and representative fluorescence histogram of CDg13 and PhA (B) (unstained, 0, 100, 1,000 and 5,000 nM of Ko143 treated group is presented).

CCCCCCCCCN(CCCCCCCCC)C(=O)c1ccc(-c2c3cc(Cl)c(=O)cc-3oc3cc(O)c(Cl)cc23)cc1 [CDg13]
Abs (nm) ([1]; 100 μM in ethanol): 520 nm
Em (nm) ([1]; 100 μM in ethanol): 553 nm
QY (Φ) ([1]; 100 μM in ethanol, reference fluorescein): 0.82
extinction co-efficient ([1]; measured in ethanol): 40933.2 M⁻¹ cm⁻¹
co-localization with other organelle markers ([2]; Golgi, lysosome, mitochondria trackers): below 0.83
co-localization with ER (Pearson's Collection and Mander's overlap) ([2]; live NS-5 cells, ER tracker): 0.97
neurospheres differentiated to neuron in the whole spheres [3]: 95.3%
effect on neurosphere size [4]: no significant difference in neurosphere size
neurosphere size on average ([4]; third passage): 109 μm
sensitivity of response to ABCG2 [5]: higher sensitivity and produced more consistent data than PhA
